Like-named read-outs stand apart in the source and are kept apart here.
Columns and labels:
[1] = molecular target: Recombinant Human NF-kappaB-Inducing Kinase (NIK/MAP3K14) (Homo sapiens, UniProt Q99558); assay: Inhibition of auto-phosphorylation of recombinant human NIK/MAP3K14 activity (AlphaScreen); format: biochemical; conditions: 5 μM ATP, 1 nM NIK, average if tested more than once
Description: Assay 1: Inhibition of Auto-Phosphorylation of Recombinant Human NF-kappaB-Inducing Kinase (NIK/MAP3K14) Activity (AlphaScreen™)
NIK/MAP3K14 auto-phosphorylation activity was measured using the AlphaScreen™ (αscreen) format (Perkin Elmer). All compounds tested were dissolved in dimethyl sulfoxide (DMSO) and further dilutions were made in assay buffer. The final DMSO concentration was 0.7% (v/v) in assays. The assay buffer was 50 mM Tris pH 7.5 containing 1 mM EGTA (ethylene glycol tetraacetic acid), 1 mM DTT (dithiothreitol), 0.1 mM Na3VO4, 5 mM MgCl2, and 0.01% Tween®20. The assays were carried out in 384 well Proxiplates (Perkin Elmer). The incubations consisted of the compound, 5 μM Adenosine-5′-triphosphate (ATP), and 1 nM NIK/MAP3K14. Incubations were initiated by the addition of GST-tagged NIK/MAP3K14 enzyme, carried out for 2 h at 25° C. and terminated by addition of stop buffer containing anti-phospho-IKK Ser176/180 antibody. Protein A Acceptor and Glutathione-Donor beads were added before reading using an EnVision Multilabel Plate Reader (Perkin Elmer). The signal obtained in the wells was normalized using high (full enzyme activity, 0.7% DMSO) and low controls (no enzyme activity, 0.7% DMSO, no ATP). IC50's were determined by fitting a sigmoidal curve to % inhibition of control versus Log10 compound concentration.

[2] = tested on: p-IKKa levels in L363 (NIK translocated multiple myeloma) cells; assay: Effect of compounds on p-IKKa levels in L363 (NIK translocated multiple myeloma) cells (AlphaLISA SureFire Ultra p-IKKa Ser176/180); format: cell-based, human; conditions: average if tested more than once, read-out: Assay 2 IC50
Description: Assay 2: Effect of Compounds on p-IKKa Levels in L363 (NIK Translocated Multiple Myeloma) Cells
All compounds tested were dissolved and serially diluted in DMSO, 1:3 dilution for 11 points in an Echo compatible plate. 100% DMSO was added to columns 12 and 24 of the plate to serve as high and low signal controls. This compound plate was used to spot 20 nL of compound or DMSO into a Greiner 384 well TC plate (781080). The final DMSO concentration was 0.3% (v/v) in cell assays. Human L363 cells (ATCC) were cultured in RPM11640 medium supplemented with GlutaMax, non-essential amino acids, sodium pyruvate and 10% fetal bovine serum. Cells were routinely maintained at densities of 0.2×10^6 cells per ml-2×10^6 cells per mL at 37° C. in a humidified 5% CO2 atmosphere incubator. Cells were passaged twice a week splitting back to obtain the low density. The day before the assay, cells were washed twice in HBSS (Hank's Balanced Salt Solution), resuspended in Dulbecco's Modified Eagle Medium (DMEM)+0.5% IgG and protease free BSA (Jackson Immuno Research Laboratories), +/−250 ng/ml recombinant human B-cell activating factor (BAFF/BLyS/TNFSF13B) and incubated overnight at 37° C. in a humidified 5% CO2 atmosphere (bulk stimulation with or without BAFF). The next day, the cell concentration was adjusted to 1×10^7 cells/ml in DMEM+/−250 ng/ml BAFF+/−10 μM MG132 and plated at 10 μl/well into compound or DMSO spotted 384 well TC plates. Seeded cells were incubated at 37° C. in a humidified 5% CO2 atmosphere for 6 h. After 6 h, the plates were removed from the incubator and cell lysis was achieved by the addition of 2.5 μl 5× lysis buffer containing protease and phosphatase inhibitors, followed by shaking on a plate shaker at room temperature for 15 min. At the end of this incubation, lysed cells were sequentially treated and incubated with acceptor and donor bead mixes according to the manufacturer's protocol for a 1 plate/2-incubation suspension cell assay (AlphaLISA SureFire Ultra p-IKKa (Ser 176/180) Assay Kit (Perkin Elmer). Plates were read using an EnVision Multilabel Plate Reader (Perkin Elmer). Within an experiment, a concentration response curve for each compound was run in duplicate. The signal obtained in the test wells was normalized using high signal (BAFF stimulated cells, DMSO, MG132) and low signal (unstimulated cells, DMSO) controls. To determine the IC50, a sigmoidal curve was fitted to the plot of % inhibition versus Log10 compound concentration.

[3] = Homo sapiens, L-363, p-IKKa levels in L363 cells

Chain of Recombinant Human NF-kappaB-Inducing Kinase (NIK/MAP3K14) (Q99558 whole entry): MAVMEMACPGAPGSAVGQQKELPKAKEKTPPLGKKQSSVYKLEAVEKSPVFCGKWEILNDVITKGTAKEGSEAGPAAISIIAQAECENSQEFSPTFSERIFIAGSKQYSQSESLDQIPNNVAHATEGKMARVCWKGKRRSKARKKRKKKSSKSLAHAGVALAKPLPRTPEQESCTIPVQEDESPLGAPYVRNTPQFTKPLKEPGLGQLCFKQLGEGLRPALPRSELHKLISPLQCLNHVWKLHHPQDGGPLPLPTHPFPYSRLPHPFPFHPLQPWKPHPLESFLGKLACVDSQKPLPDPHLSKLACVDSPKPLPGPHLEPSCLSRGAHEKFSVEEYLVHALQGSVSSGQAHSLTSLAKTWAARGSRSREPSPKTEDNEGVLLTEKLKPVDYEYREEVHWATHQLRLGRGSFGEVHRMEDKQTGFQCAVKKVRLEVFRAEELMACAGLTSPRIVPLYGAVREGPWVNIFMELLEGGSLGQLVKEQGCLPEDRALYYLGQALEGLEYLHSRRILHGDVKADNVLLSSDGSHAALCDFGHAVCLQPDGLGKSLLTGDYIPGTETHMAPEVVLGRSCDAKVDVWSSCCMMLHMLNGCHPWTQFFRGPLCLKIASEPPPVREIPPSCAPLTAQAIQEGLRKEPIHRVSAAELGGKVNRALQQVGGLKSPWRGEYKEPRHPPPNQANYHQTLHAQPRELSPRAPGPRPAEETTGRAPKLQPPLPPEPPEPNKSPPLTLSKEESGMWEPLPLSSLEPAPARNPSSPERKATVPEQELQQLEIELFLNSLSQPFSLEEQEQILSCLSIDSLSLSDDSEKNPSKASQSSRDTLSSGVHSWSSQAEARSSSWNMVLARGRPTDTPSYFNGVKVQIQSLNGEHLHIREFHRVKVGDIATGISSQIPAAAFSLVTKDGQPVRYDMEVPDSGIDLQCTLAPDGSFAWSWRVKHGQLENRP

| SMILES | IC50 [1] [µM] | IC50 [2, 3] [µM] | IC50 ([2]; p-IKKa levels in L363 cells) [µM] |
| --- | --- | --- | --- |
| CN1CC[C@@](O)(c2cccc(-c3nc(-c4ccnc(Nc5ccn(C(C)(C)C)n5)n4)cs3)c2)C1=O [Example 285, (R)-3-(3-(4-(2-((1-(tert-butyl)-1H-pyrazol-3-yl)amino)pyrimidin-4-yl)thiazol-2-yl)phenyl)-3-hydroxy-1-methylpyrrolidin-2-one] | < 0.1 | 0.1 to 0.5 | – |
| CN1CCC(O)(c2cc(C#N)cc(-c3csc(-c4ccnc(Nc5ccn(C)n5)n4)n3)c2)C1=O (single isomer, unassigned) [Example 58, 3-(3-hydroxy-1-methyl-2-oxopyrrolidin-3-yl)-5-(2-(2-((1-methyl-1H-pyrazol-3-yl)amino)pyrimidin-4-yl)thiazol-4-yl)benzonitrile] | > 0.501 | – | > 0.501 |
| Cc1nn(CC(F)F)cc1Nc1nccc(-n2ccc(-c3cc([C@]4(O)CCN(C)C4=O)ccn3)n2)n1 [Example 292, (R)-3-(2-(1-(2-((1-(2,2-Difluoroethyl)-3-methyl-1H-pyrazol-4-yl)amino)pyrimidin-4-yl)-1H-pyrazol-3-yl)pyridin-4-yl)-3-hydroxy-1-methylpyrrolidin-2-one] | < 0.1 | < 0.1 | – |
| CN1CC[C@@](O)(c2cccc(-c3nc(-c4ccnc(N[C@H]5CCOC5)n4)cs3)c2)C1=O [Example 250] | < 0.1 | > 0.501 | – |
| CN1CC[C@@](O)(c2cccc(-c3nc(-c4ccnc(Nc5cnn(CC6CCCO6)c5)n4)cs3)c2)C1=O (stereo partly drawn) [Example 72, (R)-3-hydroxy-1-methyl-3-(3-(4-(2-((1-(((R,S)-tetrahydrofuran-2-yl)methyl)-1H-pyrazol-4-yl)amino)pyrimidin-4-yl)thiazol-2-yl)phenyl)pyrrolidin-2-one] | < 0.1 | 0.1 to 0.5 | – |
| CN1CC[C@@](O)(c2cccc(-c3nc(-c4ccnc(Nc5cn(C)nc5OC(F)F)n4)cs3)c2)C1=O [Example 99, (R)-3-(3-(4-(2-((3-(difluoromethoxy)-1-methyl-1H-pyrazol-4-yl)amino)pyrimidin-4-yl)thiazol-2-yl)phenyl)-3-hydroxy-1-methylpyrrolidin-2-one] | < 0.1 | < 0.1 | – |
| C[C@H](Nc1nccc(-c2csc(-c3cccc([C@]4(O)CCN(C)C4=O)c3)n2)n1)c1ccccn1 [Example 186] | 0.1 to 0.5 | > 0.501 | – |
| Cc1ccc(CNc2nccc(-c3csc(-c4cccc([C@]5(O)CCN(C)C5=O)c4)n3)n2)cn1 [Example 204] | < 0.1 | > 0.501 | – |
| CN1CC[C@@](O)(c2cccc(-c3nc(-c4ccnc(Nc5cn6ccccc6n5)n4)cs3)c2)C1=O [Example 179] | > 0.501 | > 0.501 | – |
| CN1CC[C@@](O)(c2cccc(-c3nc(-c4ccnc(N[C@H]5CC[C@H](O)C5)n4)cs3)c2)C1=O [Example 252] | 0.1 to 0.5 | > 0.501 | – |
| CC(C)n1nccc1Nc1nccc(-c2csc(-c3cccc([C@]4(O)CCN(C)C4=O)c3)n2)n1 [Example 66, (R)-3-hydroxy-3-(3-(4-(2-((1-isopropyl-1H-pyrazol-5-yl)amino)pyrimidin-4-yl)thiazol-2-yl)phenyl)-1-methylpyrrolidin-2-one] | 0.1 to 0.5 | > 0.501 | – |
| CN1CC[C@@](O)(c2cccc(-c3nc(-c4ccnc(N[C@H]5C[C@@H](O)C5)n4)cs3)c2)C1=O [Example 180] | 0.1 to 0.5 | > 0.501 | – |
| CN1CC[C@@](O)(c2cccc(-c3nc(-c4ccnc(Nc5ccn(CC6CC6)n5)n4)cs3)c2)C1=O [Example 288, (R)-3-(3-(4-(2-((1-(cyclopropylmethyl)-1H-pyrazol-3-yl)amino)pyrimidin-4-yl)thiazol-2-yl)phenyl)-3-hydroxy-1-methylpyrrolidin-2-one] | < 0.1 | 0.1 to 0.5 | – |
| CN1CC[C@@](O)(c2cccc(-c3nc(-c4ccnc(Nc5ccon5)n4)cs3)c2)C1=O [Example 266, (R)-3-Hydroxy-3-(3-(4-(2-(isoxazol-3-ylamino)pyrimidin-4-yl)thiazol-2-yl)phenyl)-1-methylpyrrolidin-2-one] | < 0.1 | 0.1 to 0.5 | – |
| CC(Nc1nccc(-c2csc(-c3cccc([C@]4(O)CCN(C)C4=O)c3)n2)n1)c1ncccn1 (stereo partly drawn) [Example 207] | < 0.1 | > 0.501 | – |
| CN1CC[C@@](O)(c2cc(-c3csc(-c4ccnc(Nc5ccn(C)n5)n4)n3)ccc2F)C1=O (single isomer, unassigned) [Example 24] | > 0.501 | > 0.501 | – |
| CN1CC[C@@](O)(c2cccc(-c3nc(-c4ccnc(NC5CCCn6nccc65)n4)cs3)c2)C1=O (stereo partly drawn) [Example 123, (R)-3-hydroxy-1-methyl-3-(3-(4-(2-(((R,S)-4,5,6,7-tetrahydropyrazolo[1,5-a]pyridin-4-yl)amino)pyrimidin-4-yl)thiazol-2-yl)phenyl)pyrrolidin-2-one] | < 0.1 | > 0.501 | – |
| CN1CC[C@@](O)(c2cccc(-c3nc(-c4ccnc(NC5CCC5)n4)cs3)c2)C1=O [Example 131, (R)-3-(3-(4-(2-(cyclobutylamino)pyrimidin-4-yl)thiazol-2-yl)phenyl)-3-hydroxy-1-methylpyrrolidin-2-one] | < 0.1 | > 0.501 | – |
| C[C@@H](Nc1nccc(-c2csc(-c3cccc([C@]4(O)CCN(C)C4=O)c3)n2)n1)c1cn[nH]c1 (single isomer, unassigned) [Example 139] | < 0.1 | < 0.1 | – |
| Cc1cc(Nc2nccc(-c3csc(-c4cccc([C@]5(O)CCN(C)C5=O)c4)n3)n2)ccn1 [Example 43, (R)-3-Hydroxy-1-methyl-3-(3-(4-(2-((2-methylpyridin-4-yl)amino)pyrimidin-4-yl)thiazol-2-yl)phenyl)pyrrolidin-2-one] | < 0.1 | 0.1 to 0.5 | – |
| CNc1nccc(-c2csc(-c3cccc([C@]4(O)CCN(C)C4=O)c3)n2)n1 [Example 170] | 0.1 to 0.5 | > 0.501 | – |
| CN1CC[C@@](O)(c2cccc(-c3nc(-c4ccnc(N[C@H]5CCC[C@@H]5O)n4)cs3)c2)C1=O [Example 108, (R)-3-hydroxy-3-(3-(4-(2-(((1S,2S)-2-hydroxycyclopentyl)amino)pyrimidin-4-yl)thiazol-2-yl)phenyl)-1-methylpyrrolidin-2-one] | 0.1 to 0.5 | > 0.501 | – |
| CN1CC[C@@](O)(c2cccc(-c3nc(-c4ccnc(NCCS(C)(=O)=O)n4)cs3)c2)C1=O [Example 173] | 0.1 to 0.5 | > 0.501 | – |
| Cc1cccnc1CNc1nccc(-c2csc(-c3cccc([C@]4(O)CCN(C)C4=O)c3)n2)n1 [Example 206] | < 0.1 | > 0.501 | – |
| C[C@H](Nc1nccc(-c2csc(-c3cccc([C@]4(O)CCN(C)C4=O)c3)n2)n1)c1cn[nH]c1 (single isomer, unassigned) [Example 294] | < 0.1 | – | > 0.501 |
| CN1CC[C@@](O)(c2cccc(-c3nc(-c4ccnc(Nc5cccnc5OC(F)F)n4)cs3)c2)C1=O [Example 282, (R)-3-(3-(4-(2-((2-(Difluoromethoxy)pyridin-3-yl)amino)pyrimidin-4-yl)thiazol-2-yl)phenyl)-3-hydroxy-1-methylpyrrolidin-2-one] | < 0.1 | 0.1 to 0.5 | – |
| CN1CC[C@@](O)(c2cccc(-c3nc(-c4ccnc(NCCc5ccccn5)n4)cs3)c2)C1=O [Example 189] | 0.1 to 0.5 | > 0.501 | – |
